Our source for the IC50 values is patent US9359308B2, “Pyrazine kinase inhibitors” (Portola Pharmaceuticals, Inc., priority 2011, dated 2016).

The target in this test is T1, full length active recombinant SYK enzyme (Homo sapiens, UniProt P43405).
T1 construct: full length active recombinant SYK enzyme (Millipore, Calif.); purchased Millipore
Briefly: Inhibition of Syk tyrosine phosphorylation activity (LANCE TR-FRET kinase assay). Format: biochemical. Conditions: activity in the Syk assays, class symbols. In short, it runs like this:
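1 nM full-length active recombinant SYK phosphorylated 550 nM biotin-DEEDYESP-OH with 100 μM ATP in 50 mM Tris pH 7.5, 5 mM MgCl2, 1 mM DTT and 3% DMSO for 1 h at room temperature. After EDTA quench, Eu-anti-phosphotyrosine/SA-APC TR-FRET was read after 1 h. IC50s came from non-linear regression.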
On the technique in general: Time-resolved FRET reads energy transfer from a long-lived donor to a nearby acceptor.

In general, IC50 refers to the concentration that inhibits the measured activity by half.

For `CC(C)(C)c1cc(Nc2nc(N[C@H](CC3CC3)C(N)=O)cnc2C(N)=O)sn1` [Example 229, (R)-5-(1-amino-3-cyclopropyl-1-oxopropan-2-ylamino)-3-(3-tert-butylisothiazol-5-ylamino)pyrazine-2-carboxamide], the IC50 was 10 to 100 nM.

Take `NC(=O)c1ncc(N[C@H](Cc2cccs2)C(N)=O)nc1Nc1ccc2ncccc2c1` [Example 32, (R)-5-(1-amino-1-oxo-3-(thiophen-2-yl)propan-2-ylamino)-3-(quinolin-6-ylamino)pyrazine-2-carboxamide]: the half-inhibitory concentration (IC50) is less than 1 nM.

With `CC[C@@H](Nc1cnc(C(N)=O)c(Nc2cc(C(C)(C)C)ns2)n1)C(N)=O` [Example 228, (R)-5-(1-amino-1-oxobutan-2-ylamino)-3-(3-tert-butylisothiazol-5-ylamino)pyrazine-2-carboxamide], the IC50 was 10 to 100 nM.

Regarding `CC(C)C[C@@H](Nc1cnc(C(N)=O)c(Nc2cccc(-c3ccncc3)c2)n1)C(N)=O` [Example 87, (R)-5-(1-amino-4-methyl-1-oxopentan-2-ylamino)-3-(3-(pyridin-4-yl)phenylamino)pyrazine-2-carboxamide], the IC50 lay within 1 to 10 nM.

As for `CC[C@@H](Nc1cnc(C(N)=O)c(Nc2ccc3cnccc3c2)n1)C(N)=O` [Example 368, (R)-5-(1-amino-1-oxobutan-2-ylamino)-3-(isoquinolin-6-ylamino)pyrazine-2-carboxamide], the IC50 lay within 1 to 10 nM.

As for `CC(C)C[C@@H](Nc1cnc(C(N)=O)c(Nc2ccc(C(N)=O)cc2)n1)C(N)=O` [Example 20, (R)-5-(1-amino-4-methyl-1-oxopentan-2-ylamino)-3-(4-carbamoylphenylamino)pyrazine-2-carboxamide], the IC50 was in the range of 1 to 10 nM.

In the case of `COc1ncc(Nc2nc(N[C@@H]3CCCC(F)(F)[C@@H]3N)cnc2C(N)=O)cc1C` [Example 332, 5-((1R,2R)-2-amino-3,3-difluorocyclohexylamino)-3-(6-methoxy-5-methylpyridin-3-ylamino)pyrazine-2-carboxamide], the IC50 is 10 to 100 nM.

For the compound `CC(C)C[C@@H](Nc1cnc(C(N)=O)c(Nc2cncc(F)c2)n1)C(N)=O` [Example 70, (R)-5-(1-amino-4-methyl-1-oxopentan-2-ylamino)-3-(5-fluoropyridin-3-ylamino)pyrazine-2-carboxamide], the IC50 lay in the range of 10 to 100 nM.

As to `NC(=O)c1ccc(Nc2nc(N[C@@H]3CCCC[C@@H]3N)cnc2C(N)=O)cc1` [Example 13, 5-((1R,2S)-2-aminocyclohexylamino)-3-(4-carbamoylphenylamino)pyrazine-2-carboxamide], the IC50 lay within 1 to 10 nM.

With `NC(=O)c1ncc(N[C@@H]2CCCC[C@@H]2N)nc1NC1Cc2ccccc2C1` [Example 37, 5-((1R,2S)-2-aminocyclohexylamino)-3-(2,3-dihydro-1H-inden-2-ylamino)pyrazine-2-carboxamide], the IC50 lay in the range of 10 to 100 nM.

As to `CC[C@@H](Nc1cnc(C(N)=O)c(Nc2cnn(C)c2)n1)C(N)=O` [Example 211, (R)-5-(1-amino-1-oxobutan-2-ylamino)-3-(1-methyl-1H-pyrazol-4-ylamino)pyrazine-2-carboxamide], the IC50 lay within 100 to 1000 nM.

In the case of `CC(C)C[C@@H](Nc1nc(Nc2cnc3ccccc3c2)cnc1C(N)=O)C(N)=O` [Example 95, (R)-3-(1-amino-4-methyl-1-oxopentan-2-ylamino)-5-(quinolin-3-ylamino)pyrazine-2-carboxamide], the IC50 was greater than 1000 nM.

For the compound `CC(C)C[C@@H](Nc1cnc(C(N)=O)c(Nc2cncc(Cl)c2)n1)C(N)=O` [Example 216, (R)-5-(1-amino-4-methyl-1-oxopentan-2-ylamino)-3-(5-chloropyridin-3-ylamino)pyrazine-2-carboxamide], the IC50 was 1 to 10 nM.

For `CC[C@@H](Nc1cnc(C(N)=O)c(Nc2ccc(N(C)C(C)=O)cc2)n1)C(N)=O` [Example 161, (R)-5-(1-amino-1-oxobutan-2-ylamino)-3-(4-(N-methylacetamido)phenylamino)pyrazine-2-carboxamide], the IC50 lay within 100 to 1000 nM.

As to `Cc1cc(Nc2nc(N[C@H](CC3CCCCC3)C(N)=O)cnc2C(N)=O)sn1` [Example 390, (R)-5-(1-amino-3-cyclohexyl-1-oxopropan-2-ylamino)-3-(3-methylisothiazol-5-ylamino)pyrazine-2-carboxamide], the IC50 was 10 to 100 nM.

In the case of `CC(C)C[C@@H](Nc1cnc(C(N)=O)c(Nc2cccc(C(=O)N(C)C)c2)n1)C(N)=O` [Example 292, (R)-5-(1-amino-4-methyl-1-oxopentan-2-ylamino)-3-(3-(dimethylcarbamoyl)phenylamino)pyrazine-2-carboxamide], the IC50 lay in the range of 100 to 1000 nM.

For `COc1ccc(Nc2nc(N[C@@H](C(N)=O)C(C)C)cnc2C(N)=O)cc1OC` [Example 141, (R)-5-(1-amino-3-methyl-1-oxobutan-2-ylamino)-3-(3,4-dimethoxyphenylamino)pyrazine-2-carboxamide], the IC50 lay within 10 to 100 nM.

Turning to `CC(C)(C)[C@@H](Nc1cnc(C(N)=O)c(Nc2cc(C3CC3)ns2)n1)C(N)=O` [Example 244, (R)-5-(1-amino-3,3-dimethyl-1-oxobutan-2-ylamino)-3-(3-cyclopropylisothiazol-5-ylamino)pyrazine-2-carboxamide], the IC50 is 1 to 10 nM.

Consider `CC[C@@H](Nc1cnc(C(N)=O)c(Nc2cc(C)nc(C)c2)n1)C(N)=O` [Example 179, (R)-5-(1-amino-1-oxobutan-2-ylamino)-3-(2,6-dimethylpyridin-4-ylamino)pyrazine-2-carboxamide], for which the IC50 lay within 10 to 100 nM.

As for `CC[C@@H](Nc1cnc(C(N)=O)c(Nc2ccc3ncccc3c2)n1)C(N)=O` [Example 74, (R)-5-(1-amino-1-oxobutan-2-ylamino)-3-(quinolin-6-ylamino)pyrazine-2-carboxamide], the IC50 was in the range of 1 to 10 nM.

In the case of `NC(=O)c1ncc(N[C@H](CC2CC2)C(N)=O)nc1Nc1csc2ncccc12` [Example 9, (R)-5-(1-amino-3-cyclopropyl-1-oxopropan-2-ylamino)-3-(thieno[2,3-b]pyridin-3-ylamino)pyrazine-2-carboxamide], the half-maximal inhibitory concentration (IC50) was in the range of 1 to 10 nM.

Take `CC[C@@H](Nc1cnc(C(N)=O)c(Nc2cnc3ccccc3c2)n1)C(N)=O` [Example 73, (R)-5-(1-amino-1-oxobutan-2-ylamino)-3-(quinolin-3-ylamino)pyrazine-2-carboxamide]: the IC50 lay within 1 to 10 nM.

In the case of `NC(=O)c1ncc(N[C@@H]2CCCC[C@@H]2N)nc1Nc1cccc(C(=O)N2CCC2)c1` [Example 307, 5-((1R,2S)-2-aminocyclohexylamino)-3-(3-(azetidine-1-carbonyl)phenylamino)pyrazine-2-carboxamide], the IC50 fell in the range of 10 to 100 nM.

Regarding `CC[C@@H](Nc1cnc(C(N)=O)c(Nc2cc(C(C)C)ns2)n1)C(N)=O` [Example 240, (R)-5-(1-amino-1-oxobutan-2-ylamino)-3-(3-isopropylisothiazol-5-ylamino)pyrazine-2-carboxamide], the half-inhibitory concentration (IC50) is 10 to 100 nM.

For `NC(=O)c1ncc(N[C@@H]2CCCC[C@@H]2N)nc1Nc1snc2ccsc12` [Example 267, 5-((1R,2S)-2-aminocyclohexylamino)-3-(thieno[3,2-c]isothiazol-3-ylamino)pyrazine-2-carboxamide], the IC50 fell in the range of 1 to 10 nM.

On to `CC[C@@H](Nc1cnc(C(N)=O)c(Nc2cc(CO)ns2)n1)C(N)=O` [Example 251, (R)-5-(1-amino-1-oxobutan-2-ylamino)-3-(3-(hydroxymethyl)isothiazol-5-ylamino)pyrazine-2-carboxamide], for which the IC50 lay within 10 to 100 nM.

As for `CC[C@@H](Nc1cnc(C(N)=O)c(Nc2snc(C)c2Br)n1)C(N)=O` [Example 132, (R)-5-((1-amino-1-oxobutan-2-yl)amino)-3-((4-bromo-3-methylisothiazol-5-yl)amino)pyrazine-2-carboxamide], the concentration for half-maximal inhibition (IC50) lay in the range of 10 to 100 nM.

Consider `CC[C@@H](Nc1cnc(C(N)=O)c(Nc2cc(C)ccn2)n1)C(N)=O` [Example 320, (R)-5-(1-amino-1-oxobutan-2-ylamino)-3-(4-methylpyridin-2-ylamino)pyrazine-2-carboxamide], for which the IC50 was greater than 1000 nM.

As to `NC(=O)c1ncc(N[C@@H]2CCCC[C@@H]2N)nc1Nc1cccc(-n2nccn2)c1` [Example 10, 3-(3-(2H-1,2,3-triazol-2-yl)phenylamino)-5-((1R,2S)-2-aminocyclohexylamino)pyrazine-2-carboxamide], the IC50 was in the range of 1 to 10 nM.

As to `CC[C@@H](Nc1cnc(C(N)=O)c(Nc2cc(-c3ccccc3)ns2)n1)C(N)=O` [Example 403, (R)-5-(1-amino-1-oxobutan-2-ylamino)-3-(3-phenylisothiazol-5-ylamino)pyrazine-2-carboxamide], the IC50 was in the range of 10 to 100 nM.

Take `Cc1cc(Nc2nc(N[C@@H]3CCOC[C@@H]3N)cnc2C(N)=O)sn1` [Example 408, 5-((3R,4R)-3-aminotetrahydro-2H-pyran-4-ylamino)-3-(3-methylisothiazol-5-ylamino)pyrazine-2-carboxamide]: the IC50 was in the range of 1 to 10 nM.

Take `CC(C)C[C@@H](Nc1cnc(C(N)=O)c(Nc2cccc(-n3nccn3)c2)n1)C(N)=O` [Example 64, (R)-3-(3-(2H-1,2,3-triazol-2-yl)phenylamino)-5-(1-amino-4-methyl-1-oxopentan-2-ylamino)pyrazine-2-carboxamide]: the IC50 was 10 to 100 nM.

Consider `CC(C)C[C@@H](Nc1cnc(C(N)=O)c(Nc2ccc(-c3ccccn3)cc2)n1)C(N)=O` [Example 88, (R)-5-(1-amino-4-methyl-1-oxopentan-2-ylamino)-3-(4-(pyridin-2-yl)phenylamino)pyrazine-2-carboxamide], for which the IC50 lay in the range of 1 to 10 nM.

`NC(=O)c1ncc(N[C@@H]2CCCC[C@@H]2N)nc1Nc1cc(-n2ccnn2)cc(-n2ccnn2)c1` [Example 432, 5-(((1R,2S)-2-aminocyclohexyl)amino)-3-((3,5-di(1H-1,2,3-triazol-1-yl)phenyl)amino)pyrazine-2-carboxamide]: the IC50 was in the range of 1 to 10 nM.
